Data set [1] has as its target T1, Tyrosine-protein kinase JAK2 (Homo sapiens, UniProt O60674). Put plainly: biochemical.
Description: Binding affinity to JAK2 JH2 (unknown origin) expressed in baculovirus infected Sf9 cells assessed as dissociation constant measured upto 30 mins in presence of tracer by competitive fluorescence polarization assay
In data set [2] the target is Tyrosine-protein kinase JAK2 (Homo sapiens, UniProt O60674, V617F). Put plainly: biochemical.
Description: Binding affinity to JAK2 JH2 V617F mutant (unknown origin) expressed in baculovirus infected Sf9 cells assessed as dissociation constant measured upto 30 mins in presence of tracer by competitive fluorescence polarization assay
Data set [3] deals with T1, Tyrosine-protein kinase JAK2. The data set is described as follows: biochemical. This is another data set of the same source.
Description: Binding affinity to wild type JAK2 JH1 (unknown origin) expressed in baculovirus infected Sf9 cells assessed as dissociation constant measured upto 30 mins in presence of tracer by competitive fluorescence polarization assay
The conditions of data set [4]: pampa, pH 7.4, 18 h.
Description: Permeability of the compound in PBS buffer at pH 7.4 measured after 18 hrs by UV plate reader based PAMPA assay
Data set [5] deals with Tyrosine-protein kinase JAK2 (Homo sapiens), O60674 [V617F]. Put plainly: Inhibition of JAK2 JH2 V617F mutant in human HEL cells assessed as reduction in STAT5 phosphorylation at 10 to 20 uM incubated for 1 hrs by Western blotting analysis. It is filed as cell-based. The note with it: dose 10-20 µM. (In general: A western blot detects proteins with antibodies after separation by electrophoresis.)

Data set [6] addresses T1, Tyrosine-protein kinase JAK2. The data set is described as follows: Inhibition of wild type JAK2 JH2 in human TF-1 cells assessed as reduction in STAT5 phosphorylation at 10 to 20 uM incubated for 1 hrs by Western blotting analysis. The conditions noted are these: dose 10-20 µM. It is filed as cell-based.
Data set [7] has as its system Tyrosine-protein kinase JAK2 (Homo sapiens), O60674 [V617F]. The data set is described as follows: Inhibition of JAK2 JH2 V617F mutant in human HEL cells assessed as reduction in STAT5 phosphorylation at 20 uM measured after 3 hrs by Western blotting analysis. Type of data set: cell-based.
Data set [8] addresses T1, Tyrosine-protein kinase JAK2. The data set is described as follows: Inhibition of JAK2 JH2 (unknown origin) expressed in baculovirus infected Sf9 cells at 50 uM incubated upto 30 mins in the presence of tracer by competitive fluorescence polarization analysis relative to control. In general terms: Fluorescence polarisation rises when a labelled molecule tumbles more slowly, as on binding a larger partner.

SMILES strings stand for the structures. Active and inactive are the calls of the source. The calls are words filed in the database; no cut-off is given here.

T1 sequence (O60674 whole entry): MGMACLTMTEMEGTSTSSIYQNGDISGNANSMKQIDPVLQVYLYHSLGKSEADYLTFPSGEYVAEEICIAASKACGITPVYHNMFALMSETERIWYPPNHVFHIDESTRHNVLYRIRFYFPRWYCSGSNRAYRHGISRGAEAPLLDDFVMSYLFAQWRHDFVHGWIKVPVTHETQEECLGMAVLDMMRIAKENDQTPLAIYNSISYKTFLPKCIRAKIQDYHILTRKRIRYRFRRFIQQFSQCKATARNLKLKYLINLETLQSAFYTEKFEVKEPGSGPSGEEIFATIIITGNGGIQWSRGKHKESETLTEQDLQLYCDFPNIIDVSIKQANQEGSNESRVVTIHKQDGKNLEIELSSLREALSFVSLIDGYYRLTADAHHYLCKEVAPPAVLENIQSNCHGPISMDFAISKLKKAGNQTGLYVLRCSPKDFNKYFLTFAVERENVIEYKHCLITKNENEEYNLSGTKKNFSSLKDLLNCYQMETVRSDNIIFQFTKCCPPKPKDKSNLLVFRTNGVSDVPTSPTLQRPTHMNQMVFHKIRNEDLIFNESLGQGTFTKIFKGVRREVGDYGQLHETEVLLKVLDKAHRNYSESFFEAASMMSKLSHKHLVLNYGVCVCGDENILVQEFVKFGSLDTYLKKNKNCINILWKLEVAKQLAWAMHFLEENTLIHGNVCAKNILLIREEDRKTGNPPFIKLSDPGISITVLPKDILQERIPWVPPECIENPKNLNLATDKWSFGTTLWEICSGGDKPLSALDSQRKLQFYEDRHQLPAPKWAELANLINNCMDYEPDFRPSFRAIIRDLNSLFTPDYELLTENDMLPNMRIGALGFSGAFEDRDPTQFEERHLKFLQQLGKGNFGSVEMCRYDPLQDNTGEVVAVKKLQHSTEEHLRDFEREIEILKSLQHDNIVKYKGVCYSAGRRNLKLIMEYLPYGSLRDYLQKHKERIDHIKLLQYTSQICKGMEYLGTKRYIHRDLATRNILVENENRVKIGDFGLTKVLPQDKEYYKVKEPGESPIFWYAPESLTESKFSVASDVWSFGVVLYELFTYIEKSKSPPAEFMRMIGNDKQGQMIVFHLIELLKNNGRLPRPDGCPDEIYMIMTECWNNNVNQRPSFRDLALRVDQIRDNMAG
Chain of Tyrosine-protein kinase JAK2 (Homo sapiens, UniProt O60674, V617F) (O60674 whole entry V617F): as the sequence (O60674 whole entry) above, with V617F counted along it
Chain of Tyrosine-protein kinase JAK2 (Homo sapiens), O60674 [V617F] (O60674 whole entry V617F): as the sequence (O60674 whole entry) above, with V617F counted along it

As usually defined, the Kd is the equilibrium constant for the complex coming apart. Turning to `CNC(=O)c1ccc(Nc2nc(N)n(C(=O)Nc3ccc(-c4cc(OCc5ccccc5)cc(C(=O)O)c4)cc3)n2)cc1`, the Kd in data set [1] stood at 44 nM; in data set [2], 50 nM; in data set [3] it was 5910 nM. Also, the permeability in data set [4] is listed as 0.971 10^-6 cm/s.

As usually defined, the inhibition is the share of the control response that was lost under treatment. Consider `CNC(=O)c1ccc(Nc2nc(N)n(C(=O)Nc3ccc(-c4ccc(OCc5ccccc5)c(C(=O)O)c4)cc3)n2)cc1`, for which the inhibition result in data set [5], in data set [6] and in data set [7] was “Active” each time. The figures for the Kd in data set [2] and in data set [3] were 43 nM and 6810 nM, respectively. The permeability in data set [4] is 0.24 10^-6 cm/s.

In the case of `Nc1nc(Nc2ccc(S(N)(=O)=O)cc2)nn1C(=O)Nc1ccc(-c2ccc(C(=O)O)cc2)cc1`, the dissociation constant Kd in data set [1] is 155 nM.

Take `COC(=O)c1cccc(-c2ccc(NC(=O)n3nc(Nc4ccc(S(N)(=O)=O)cc4)nc3N)cc2)c1`: in data set [8], the inhibition worked out at 27%. Moreover, in data set [4], the permeability is listed as 0.09 10^-6 cm/s.

`Nc1nc(Nc2ccc(S(N)(=O)=O)cc2)nn1C(=O)Nc1ccc(-c2cccc(C(=O)O)n2)cc1`: the affinity in data set [1], expressed as Kd, was 934 nM.

Take `Nc1nc(Nc2ccc(S(N)(=O)=O)cc2)nn1C(=O)Nc1ccc(-c2cccc(C(=O)O)c2)cc1`: binding in data set [1] was characterised by a dissociation constant (Kd) of 129 nM. The permeability in data set [4] was 0.015 10^-6 cm/s.

For the compound `Nc1nc(Nc2ccc(S(N)(=O)=O)cc2)nn1C(=O)Nc1ccc(-c2cncc(C(=O)O)c2)cc1`, the Kd in data set [1] was determined as 652 nM.

Take `Nc1nc(Nc2ccc(S(N)(=O)=O)cc2)nn1C(=O)Nc1ccc(-c2ccccc2)cc1`: in data set [8], the inhibition is 30.5%.

For `Nc1nc(Nc2ccc(S(N)(=O)=O)cc2)nn1C(=O)Nc1ccc(-c2cc(OCc3ccccc3)cc(C(=O)O)c2)cc1`, the Kd came out at 75 nM in data set [1], 62 nM in data set [2] and 3360 nM in data set [3]. The permeability in data set [4] is 1.15 10^-6 cm/s.

`Nc1nc(Nc2ccc(S(N)(=O)=O)cc2)nn1C(=O)Nc1ccc(-c2ccnc(C(=O)O)c2)cc1`: the results for the Kd in data set [1], in data set [2] and in data set [3] were 394 nM, 131 nM and 8100 nM, respectively.

Consider `Nc1nc(Nc2ccc(S(N)(=O)=O)cc2)nn1C(=O)Nc1ccc(-c2cncc(C(=O)O)n2)cc1`, for which the Kd in data set [1] was 1400 nM.
